From patent US20220324835A1 (Nurix Therapeutics, Inc., priority 2018, published 2022) come the findings set out here.

SMILES strings stand for the structures. Where two headings read alike, the source gives them in different places.

Assay [1] relates to T-cell. Briefly: IL-2 secretion from T-cells co-stimulated with anti-CD3 and anti-CD28 antibody (Biological Example 2). The settings on record: Homo sapiens, T-cell, primary human total T-cells, baseline = anti-CD3/anti-CD28 stimulated cells without inhibitor, read-out: IL-2 secretion, Anti-CD3/Anti-CD28 stimulation, fold change over baseline. The assay is classed as cell-based, human. An outline of the steps:
(§1)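 Values are fold-change over baseline: readings (IL-2 release, CD25 staining) from inhibitor-treated T-cells divided against untreated cells […]. No detailed procedure stated.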

Assay [2] has as its system T-cell. Description: CD25 cell surface staining on T-cells co-stimulated with anti-CD3 and anti-CD28 antibody (Biological Example 2). The settings on record: Homo sapiens, T-cell, primary human total T-cells, baseline = anti-CD3/anti-CD28 stimulated cells without inhibitor, read-out: CD25 staining, Anti-CD3/Anti-CD28 stimulation, fold change over baseline. The class given is cell-based, human. Summed up: as §1

A further assay addresses Cbl-b (Homo sapiens, UniProt Q13191). Briefly: Cbl-b activity assay (Cbl-b inhibition assay), TR-FRET of Cbl-b interaction with UbcH5B-Ub. The class given is biochemical. The settings on record: assay buffer with 100 mM NaCl, 60 nM Src kinase; read-out: Cbl-b activity IC50. Summed up:
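Compound-treated Cbl-b was incubated 1.5 h with Src kinase (60 nM final; 30 nM for asterisked values, which also used 50 mM instead of 100 mM NaCl), 1 mM ATP and 5 mM MgCl2. Binding to fluorescent Ub-loaded UbcH5B (C85K mutant) was then read by TR-FRET after 1 h more.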

Assay [3] concerns primary human total T-cells. Description: T-cell activation assessed by cell proliferation (Cell Trace Violet). The assay is classed as cell-based. Summed up: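 Primary human T-cells (>95% CD3+, negative selection from PBMC) were pre-incubated with inhibitor (e.g. 10, 1.11, 0.123 μM; DMSO <0.1%) for 1 h at 37 °C. They were then stimulated 48 h with plate-bound OKT3 (coated at 10 μg/mL), alone or with 5 μg/mL soluble anti-CD28. Results are fold change over uninhibited, identically stimulated cells.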

[4] abbreviates: CD3/CD28 stimulation, CD4 T-cells, read-out: % CP (cell proliferation) (CD4).
Setting [5] is: CD3/CD28 stimulation, CD8 T-cells, read-out: % CP (cell proliferation) (CD8).
[6] abbreviates: CD3 alone stimulation, CD8 T-cells, read-out: % CP (cell proliferation) (CD8).

Chain of Cbl-b (Q13191 36-427): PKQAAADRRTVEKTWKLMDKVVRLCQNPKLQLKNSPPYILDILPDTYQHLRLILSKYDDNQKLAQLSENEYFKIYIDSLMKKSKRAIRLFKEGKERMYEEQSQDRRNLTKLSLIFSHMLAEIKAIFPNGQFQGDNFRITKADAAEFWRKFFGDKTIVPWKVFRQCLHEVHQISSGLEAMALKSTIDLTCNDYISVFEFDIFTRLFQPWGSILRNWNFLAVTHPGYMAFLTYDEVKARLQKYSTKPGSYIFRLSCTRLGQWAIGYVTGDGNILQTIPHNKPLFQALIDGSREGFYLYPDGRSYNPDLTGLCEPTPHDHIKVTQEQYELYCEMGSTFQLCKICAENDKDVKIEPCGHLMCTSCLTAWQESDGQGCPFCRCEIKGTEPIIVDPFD

Regarding `CNCc1ccc(C(=O)Nc2cccc([C@H](C)Cc3nncn3C)c2)nc1C1CC1` [Compound 376, (R)-6-cyclopropyl-N-(3-(1-(4-methyl-4H-1,2,4-triazol-3-yl)propan-2-yl)phenyl)-5-((methylamino)methyl)picolinamide], the fold induction at 0.3 µM in the assay with T-cell [1] (0.3 μM compound) is 1.01 to 2.5; with T-cell [2] (0.3 μM compound), 1.01 to 1.3. Besides, the figures for the fold induction at 1 µM in the assay with T-cell [1] (1 μM compound) and in the assay on T-cell [2] (1 μM compound) were 2.51 to 5 and 1.31 to 1.5, respectively. Besides, the fold induction at 4 µM in the assay with T-cell [1] (4 μM compound) was over 7.5; in the assay on T-cell [2] (4 μM compound) it was 1.51 to 1.75. Further, on Cbl-b, the IC50 fell in the range of 100 to 300 nM. The fold induction at 1.11 µM in assay [3] (setting [4]) is over 4; in assay [3] (setting [5]) it was 3.01 to 4; in assay [3] (setting [6]) it was over 4. The fold induction at 10 µM in assay [3] (setting [4]), in assay [3] (setting [5]) and in assay [3] (setting [6]) was over 4 each time.
